The text below walks through data of the NIST ThermoML archive (doi:10.1021/je100725a).

Numbers after ± are expanded uncertainties.

The first series in a line: Molar enthalpy of transition or fusion. As to conditions: Crystal; DSC.
As to `CCCCCCCCCCC(C)=O` [2-dodecanone], the “Molar enthalpy of transition or fusion” value amounted to 9.44 ± 0.201 kcal/mol.
On the same count and under the same terms, the result for `CCCCCC(C)=O` [2-heptanone] reads 4.56 ± 0.108 kcal/mol; that for `CCCCCCCC(C)=O` [2-nonanone], 6.54 ± 0.146 kcal/mol; that for `CCCCCCCCCCCC(C)=O` [2-tridecanone], 10.5 ± 0.222 kcal/mol.
Regarding `CCCCCCCCCCO` [decan-1-ol], the “Molar enthalpy of transition or fusion” value turned out to be 7.5 ± 0.165 kcal/mol.
`CCCCCCCCCCCCO` [dodecan-1-ol]: the “Molar enthalpy of transition or fusion” value stood at 9.02 ± 0.194 kcal/mol.
For the compound `CCCCCCCCO` [octan-1-ol], the “Molar enthalpy of transition or fusion” value came to 5.66 ± 0.129 kcal/mol.

Assay in a further series: not given
As to conditions: Crystal.
Regarding `CCCCCCCCCCC(C)=O` [2-dodecanone], the Normal melting temperature was found to be 21 ± 0.6 °C.
`CCCCCC(C)=O` [2-heptanone]: the Normal melting temperature was -36 ± 0.6 °C.
As to `CCCCCCCC(C)=O` [2-nonanone], the Normal melting temperature was -9.8 ± 0.6 °C.
In the case of `CCCCCCCCCCCC(C)=O` [2-tridecanone], the Normal melting temperature came to 27.7 ± 0.6 °C.
On the same count and under the same terms, next, `CCCCCCCCCC(C)=O` [2-undecanone]: 11.7 ± 0.6 °C; `CCCCCCCCCCO` [decan-1-ol]: 6.4 ± 0.6 °C; `CCCCCCCCCCCCO` [dodecan-1-ol]: 23.5 ± 0.6 °C.
The same measure, in the same setting: the result for `CCCCCCCCO` [octan-1-ol] reads -14.5 ± 0.6 °C.

The series is the same for the next values; noted with them: Crystal; DTA.
Turning to `CCCCCCCCCCC(C)=O` [2-dodecanone], the Normal melting temperature is 21.12 ± 0.39 °C.
With `CCCCCC(C)=O` [2-heptanone], the Normal melting temperature is -36.6 ± 0.4 °C.
For `CCCCCCCC(C)=O` [2-nonanone], the Normal melting temperature was -9.47 ± 0.39 °C.
The same measure, in the same setting: next, `CCCCCCCCCCCC(C)=O` [2-tridecanone]: 28.60 ± 0.39 °C; `CCCCCCCCCC(C)=O` [2-undecanone]: 12.11 ± 0.39 °C.
